Tests used:
[1] = tested on: NZM mice; assay: Survival, NZM lupus nephritis model, ip dosing (Example 2); type: in vivo, mouse; conditions: G6 50 mg/kg ip, 1× wk
[2] = tested on: NZM mice; assay: Body weight progression, NZM mice (Example 2); type: in vivo, mouse; conditions: G6 50 mg/kg ip, 1× wk
[3] = tested on: NZM mice; assay: Splenomegaly (spleen mass), NZM mice (Example 2); type: in vivo, mouse
[4] = tested on: NZM mice; assay: Urinalysis: total urine protein (proteinuria), NZM mice (Example 2); type: in vivo, mouse; conditions: G6 50 mg/kg ip, 1× wk
[5] = tested on: NZM mice; assay: Antinuclear antibody (ANA) ELISA (anti-chromatin, anti-Smith Ag, anti-dsDNA), serum of NZM mice (Example 2); type: in vivo, mouse
[6] = tested on: NZM mice; type: in vivo, mouse
[7] = tested on: NZM mice; assay: Antibody secreting B-cell Elispot (anti-chromatin, total IgG ASC), spleens of NZM mice (Example 2); type: in vivo, mouse
Protocol: FIG. 34 depicts the frequency of anti-chromatin antibody secreting cells in the spleens of NZM mice. NZM treated mice spleens were processed for splenocytes for ex vivo Elispot assays. Elispot wells were coated with 10 μg/mL of boiled chicken chromatin or ovalbumin protein. Fresh, whole splenocytes were added to each well at 50,000 cells per well in cell culture medium. Cells were incubated overnight at 37° C. Developed wells provided spots that were counted as frequency of ASCs per million splenocytes.
FIG. 35 depicts the frequency of total IgG antibody secreting cells in the spleens of NZM mice. NZM treated mice spleens were processed for splenocytes for ex vivo Elispot assays. Elispot wells were coated with 10 μg/mL of anti-mouse IgG, IgH, and IgL chains. Fresh, whole splenocytes were added to each well at 50,000 cells per well in cell culture medium. Cells were incubated overnight at 37° C. Developed wells provided spots that were counted as frequency of ASCs per million splenocytes.
B-cell Elispot components are ordered from MabTech (Nacka Strand, Sweden) and nitrocellulose IP filter plates are ordered from Millipore (Billerica, Mass.). Elispot wells are coated with either purified bovine thymus dsDNA (Sigma), purified bovine Smith antigen (GenWay) or boiled filtered purified chicken chromatin from lysed chicken red blood cells (Rockland, Gilbertsville, Pa.) at 10 μg/mL. Spleens are processed using glass homogenization (frosted slides). Dispersed cell contents are washed in sterile HBSS and RBCs lysed using 1×RBC lysis buffer (BioLegend, Cat #420301). Processed splenocytes are added to each well and are not stimulated with lipopolysaccharide (LPS) to avoid skewing of true ex vivo frequencies of antibody-secreting cell types (ASCs). Anti-mouse pan-IgG is used as a positive control for total IgG producing ASCs and is used to normalize results. Frequencies for each antigen are identified in an initial test phase for each model. For chromatin and total IgG only, 30,000 splenocytes are added to each well; for Smith antigen and dsDNA, 500,000 cells are added to each well. Different numbers of splenocytes are added for different antigens due to saturation limits of spot frequencies per well. B-cell Elispots are incubated overnight at 37° C. To develop each assay, secondary antibody is added to each well, incubated, washed and alkaline phosphatase strepavidin (Jackson ImmunoResearch, West Grove, Pa.) is used as the conjugate; substrate used is BCIP-NBT (MabTech, Cincinnati, Ohio). Plates are developed until spots are visible. All Elispot analyses are performed using an Immunospot C.T.L. scanner and Biospot software (Cellular Technology Ltd., Shaker Heights, Ohio). Results are shown as values from which media and cells only wells are subtracted. Some values are negative due to high background.

[8] = tested on: NZM mice; assay: Collagen type-I cross-linker (CTx) bone resorption biomarker ELISA, serum of NZM mice; type: in vivo, mouse; conditions: G6 50 mg/kg ip, 1× wk
Protocol: Assay is performed as instructed by the manufacturer. Briefly, biotinylated ratlaps antigen is first added in each well of a 96-well ELISA plate. This plate is covered and incubated for 30 minutes at RT. Plate is washed five times with washing solution and incubated with standards or unknown samples in appropriate wells followed by primary Ab. Incubate overnight for 18 hours at 4° C. followed by washing with buffer. Secondary incubation includes a peroxidase conjugated goat anti-rabbit IgG added to each well and incubation at RT for 1 hour. Incubation with chromogenic substrate solution for 15 minutes at RT in the dark develops the plate for analysis. Stopping solution halts the reaction, absorbance is measured within 2 hours at 450 nm.

[9] = tested on: NZM mice; assay: Renal histopathology scoring (kidney IC-GN), NZM mice (Example 2); type: in vivo, mouse
Protocol: For histological analyses, the left kidney from each animal is removed and fixed in 10% buffered neutral formalin (EMD) for 48 hours on an orbital rocker at 25° C., then washed overnight with running dH2O and stored in 70% ethanol at 4° C. until ready to be processed. Kidney stains used for histological analyses included hematoxylin and eosin (H&E), Periodic Acid Schiff (PAS) and Trichrome stains (Wistar Institute, Philadelphia, Pa.). All 3 stained sections are used by the pathologist for scoring purposes. All histological scoring is performed blinded and by an independent board certified veterinary medical pathologist (Julie Engiles, VMD, DACVP). Multiple stains are used to determine score values. Images in FIG. 39 show worst affected area of section selected blindly by the pathologist.
Kidney IC-GN Scoring Method (Smith, Dong et al. 2007):
1. Glomerular cellularity—Score 1-5: Null, low, moderate, high, severe
2. Glomerular necrosis—Score 1-5: Null, low, moderate, high, severe
3. Glomerulosclerosis—Score 1-5: Null, low, moderate, high, severe
4. Interstitial infiltration—Score 1-5: Null, low, moderate, high, severe
5. Tubular atrophy—Score 1-5: Null, low, moderate, high, severe
6. Interstitial fibrosis—Score 1-5: Null, low, moderate, high, severe
7. Vasculitis—Score 1-5: Null, low, moderate, high, severe
Specific Pathologist Definitions: • Necrosis is defined by the presence of nuclear debris/pyknosis within the glomerular tuft indicative of “necrosis.” In many samples, this is a very mild, rare finding within only a very few segments of the glomerular tuft. Also consider effacement of the glomerular tuft by PAS positive, Trichrome negative material necrosis. • Glomerular sclerosis is defined by increased fibroplasia or fibrosis within the glomerular tuft or capsule. […] Most of the vascular changes are mild and could be considered “arteriosclerosis” characterized by proliferation of the smooth muscle cells, and hyalinization of the extracellular matrix. This change may reflect hypertension secondary to glomerular pathology. In very few animals is there overt “vasculitis.” Most inflammatory changes are within the walls of the blood vessels, with little to no damage to the endothelium, and no overt hemorrhage/fibrin leakage. Many also have perivascular rims of fibroblasts.

[10] = tested on: NZM mice; assay: Serum C3 complement ELISA, NZM mice (Example 2)

O=P1(N(CCCl)CCCl)NCCCO1 (centres unmarked) [CTX, Cyclophosphamide]
EOS survival, percent live mice from original number [1]: 70%
Body mass AUC, percent change vs vehicle [2]: +4%
Spleen mass EOS, percent change vs vehicle ([3]; G6 50 mg/kg ip, 1× wk): −42%
spleen mass compared to once-a-week bortezomib ([3]; p<0.05): reduced spleen mass significantly
Urine proteinuria AUC, percent change vs vehicle [4]: −68%
ANA Smith Ag AUC, percent change vs vehicle ([5]; G6 50 mg/kg ip, 1× wk): −86%
ANA chromatin AUC, percent change vs vehicle ([5]; G6 50 mg/kg ip, 1× wk): −51%
ANA dsDNA AUC, percent change vs vehicle ([5]; G6 50 mg/kg ip, 1× wk): −66%
reduction in anti-chromatin Ab relative to vehicle, significance ([5]; bortezomib, Dex or CTX treatment groups): none of which was significant
Cytokine IL-12 AUC, percent change vs vehicle ([6]; G6 50 mg/kg ip, 1× wk): −78%
Cytokine IL-13 AUC, percent change vs vehicle ([6]; G6 50 mg/kg ip, 1× wk): 486%
Cytokine IL-17A AUC, percent change vs vehicle ([6]; G6 50 mg/kg ip, 1× wk): 508%
Cytokine IP-10 AUC, percent change vs vehicle ([6]; G6 50 mg/kg ip, 1× wk): 338%
Cytokine MIG AUC, percent change vs vehicle ([6]; G6 50 mg/kg ip, 1× wk): 359%
Cytokine TNFα AUC, percent change vs vehicle ([6]; G6 50 mg/kg ip, 1× wk): −25%
p, serum IL-12p40/p70 concentration vs G5 Bortezomib 0.3 mg/kg 1× wk ip ([6]; G7 50 mg/kg 1× wk ip): NS (NS = not significant (p > 0.05))
p, serum IL-12p40/p70 concentration vs G6 Bortezomib 0.3 mg/kg 2× wk ip ([6]; G7 50 mg/kg 1× wk ip): NS (NS = not significant (p > 0.05))
p, serum IL-12p40/p70 concentration vs G8 Dex 1.5 mg/kg 3× wk ip ([6]; G7 50 mg/kg 1× wk ip): NS (NS = not significant (p > 0.05))
p, serum IL-12p40/p70 concentration vs G9 Vehicle 1× wk ip ([6]; G7 50 mg/kg 1× wk ip): p < 0.001
p, serum IL-13 concentration vs G5 Bortezomib 0.3 mg/kg 1× wk ip ([6]; G7 50 mg/kg 1× wk ip): p < 0.001
p, serum IL-13 concentration vs G6 Bortezomib 0.3 mg/kg 2× wk ip ([6]; G7 50 mg/kg 1× wk ip): p < 0.001
p, serum IL-13 concentration vs G8 Dex 1.5 mg/kg 3× wk ip ([6]; G7 50 mg/kg 1× wk ip): p < 0.001
p, serum IL-13 concentration vs G9 Vehicle 1× wk ip ([6]; G7 50 mg/kg 1× wk ip): p < 0.001
p, serum IL-17A concentration vs G5 Bortezomib 0.3 mg/kg 1× wk ip ([6]; G7 50 mg/kg 1× wk ip): NS (NS = not significant (p > 0.05))
p, serum IL-17A concentration vs G6 Bortezomib 0.3 mg/kg 2× wk ip ([6]; G7 50 mg/kg 1× wk ip): p < 0.001
p, serum IL-17A concentration vs G8 Dex 1.5 mg/kg 3× wk ip ([6]; G7 50 mg/kg 1× wk ip): p < 0.001
p, serum IL-17A concentration vs G9 Vehicle 1× wk ip ([6]; G7 50 mg/kg 1× wk ip): p < 0.001
p, serum IP-10 concentration vs G5 Bortezomib 0.3 mg/kg 1× wk ip ([6]; G7 50 mg/kg 1× wk ip): P < 0.001
p, serum IP-10 concentration vs G6 Bortezomib 0.3 mg/kg 2× wk ip ([6]; G7 50 mg/kg 1× wk ip): p < 0.001
p, serum IP-10 concentration vs G8 Dex 1.5 mg/kg 3× wk ip ([6]; G7 50 mg/kg 1× wk ip): P < 0.001
p, serum IP-10 concentration vs G9 Vehicle 1× wk ip ([6]; G7 50 mg/kg 1× wk ip): p < 0.001
p, serum MIG concentration vs G5 Bortezomib 0.3 mg/kg 1× wk ip ([6]; G7 50 mg/kg 1× wk ip): p < 0.001
p, serum MIG concentration vs G6 Bortezomib 0.3 mg/kg 2× wk ip ([6]; G7 50 mg/kg 1× wk ip): p < 0.001
p, serum MIG concentration vs G8 Dex 1.5 mg/kg 3× wk ip ([6]; G7 50 mg/kg 1× wk ip): p < 0.001
p, serum MIG concentration vs G9 Vehicle 1× wk ip ([6]; G7 50 mg/kg 1× wk ip): p < 0.001
p, serum TNFα concentration vs G5 Bortezomib 0.3 mg/kg 1× wk ip ([6]; G7 50 mg/kg 1× wk ip): NS (NS = not significant (p > 0.05))
p, serum TNFα concentration vs G6 Bortezomib 0.3 mg/kg 2× wk ip ([6]; G7 50 mg/kg 1× wk ip): NS (NS = not significant (p > 0.05))
p, serum TNFα concentration vs G8 Dex 1.5 mg/kg 3× wk ip ([6]; G7 50 mg/kg 1× wk ip): p <0.05
p, serum TNFα concentration vs G9 Vehicle 1× wk ip ([6]; G7 50 mg/kg 1× wk ip): NS (NS = not significant (p > 0.05))
ASC chromatin EOS, percent change vs vehicle ([7]; G6 50 mg/kg ip, 1× wk): −100%
ASC total IgG EOS, percent change vs vehicle ([7]; G6 50 mg/kg ip, 1× wk): −93%
p, frequency of anti-chromatin antibody secreting cells in spleen vs G5 Bortezomib 0.3 mg/kg 1× wk ip ([7]; G7 50 mg/kg 1× wk ip): P < 0.05
p, frequency of anti-chromatin antibody secreting cells in spleen vs G6 Bortezomib 0.3 mg/kg 2× wk ip ([7]; G7 50 mg/kg 1× wk ip): p < 0.05
p, frequency of anti-chromatin antibody secreting cells in spleen vs G9 Vehicle 1× wk ip ([7]; G7 50 mg/kg 1× wk ip): p < 0.01
p, frequency of total IgG antibody secreting cells in spleen vs G5 Bortezomib 0.3 mg/kg 1× wk ip ([7]; G7 50 mg/kg 1× wk ip): p < 0.001
p, frequency of total IgG antibody secreting cells in spleen vs G6 Bortezomib 0.3 mg/kg 2× wk ip ([7]; G7 50 mg/kg 1× wk ip): p < 0.001
p, frequency of total IgG antibody secreting cells in spleen vs G8 Dex 1.5 mg/kg 3× wk ip ([7]; G7 50 mg/kg 1× wk ip): P < 0.01
p, frequency of total IgG antibody secreting cells in spleen vs G9 Vehicle 1× wk ip ([7]; G7 50 mg/kg 1× wk ip): p < 0.01
Serum CTx linker AUC, percent change vs vehicle [8]: −26%
p, glomerular cellularity (GC) vs G7 Vehicle ([9]; G5 50 mg/kg 1× wk): p < 0.05
Kidney glomerular cellularity, percent change vs vehicle ([9]; G6 50 mg/kg ip, 1× wk): −7%
Kidney glomerular necrosis, percent change vs vehicle ([9]; G6 50 mg/kg ip, 1× wk): 42%
Kidney glomerulosclerosis, percent change vs vehicle ([9]; G6 50 mg/kg ip, 1× wk): 34%
Kidney interstitial fibrosis, percent change vs vehicle ([9]; G6 50 mg/kg ip, 1× wk): 11%
Kidney interstitial infiltration, percent change vs vehicle ([9]; G6 50 mg/kg ip, 1× wk): 11%
Kidney tubular atrophy, percent change vs vehicle ([9]; G6 50 mg/kg ip, 1× wk): 18%
Kidney vasculitis, percent change vs vehicle ([9]; G6 50 mg/kg ip, 1× wk): 9%
Serum C3 complement AUC, percent change vs vehicle ([10]; G6 50 mg/kg ip, 1× wk): −18%
p, serum C3 complement levels vs G8 Dex 1.5 mg/kg 3× wk ip ([10]; G7 50 mg/kg 1× wk ip): p < 0.01
